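Interpolation was linear, between the two tested concentrations surrounding the appropriate level; five concentrations were tested over 48 hours in 96-well plates. Abbreviation: GI50, concentration required for 50% inhibition of growth.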 Activity calls are given as the source filed them. Rule as the data show it: active = GI50 up to about 1.1 µM and inactive = higher.
Assays:
Test in all cases: inhibition of tumour cell growth, NCI panel, 48 h
XF498 = tested on: XF498
HOP-18 = tested on: HOP-18
TK-10 = tested on: TK-10
SR = tested on: SR
LXFL 529 = tested on: LXFL 529
RXF 631 = tested on: RXF 631
MDA-MB-231 = tested on: MDA-MB-231
DU-145 = tested on: DU-145

Row | Compound | GI50 (XF498) | GI50 (HOP-18) | GI50 (TK-10) | GI50 (SR) | GI50 (LXFL 529) | GI50 (RXF 631) | GI50 (MDA-MB-231) | GI50 (DU-145)
1 | CN(C)CCNC(=O)c1cccc2nc(-c3ccccc3)oc12 | 34.3 µM (inactive) | > 61.2 µM (inactive) | – | – | – | – | – | –
2 | COc1ccc(C(=O)Cc2cc(OC)ccc2OC)cc1 | – | > 100 µM (inactive) | > 100 µM (inactive) | > 100 µM (inactive) | > 100 µM (inactive) | > 100 µM (inactive) | – | –
3 | O=C(O)C12CC3CC(C1)C2C=C3P(=O)(O)O (stereo not given) | – | – | > 100 µM (inactive) | – | > 100 µM (inactive) | – | – | –
4 | CC1(C)CC2(CC(C)(C)N1O)NC(=O)OC2=O | > 100 µM (inactive) | > 100 µM (inactive) | – | – | – | – | – | –
5 | CN1CN(C(=O)N2CN(C)C(=O)N(C)C2)CN(C)C1=O | > 100 µM (inactive) | > 100 µM (inactive) | – | – | > 100 µM (inactive) | – | – | –
6 | O=C(/N=N/c1cc(Cl)ccc1Cl)NNc1cc(Cl)ccc1Cl | – | – | – | 21.2 µM (inactive) | – | – | 15.7 µM (inactive) | 30.3 µM (inactive)
7 | CC(=O)OC1CC2(O)C(CCC3(C)C(c4ccc(=O)oc4)CCC32O)C2(C)CCC(O)C=C12 (stereo not given) | 0.0381 µM (active) | 0.0094 µM (active) | – | – | – | – | – | –
8 | CC(=O)OC1CC[C@@]2(C)C(=CC[C@@H]3[C@@H]2CC[C@]2(C)Nc4nn(S(C)(=O)=O)cc4C[C@@H]32)C1 (stereo not given in full) | – | – | – | 36.4 µM (inactive) | – | – | 31 µM (inactive) | 35.9 µM (inactive)
9 | CCOC(=O)C1=NN(c2ccccc2)C2=CC(C)=NN(C)C(=S)N21 | – | – | > 100 µM (inactive) | > 100 µM (inactive) | – | – | > 100 µM (inactive) | > 100 µM (inactive)
10 | CCP(=S)(CC)CCl | – | – | > 100 µM (inactive) | > 100 µM (inactive) | – | – | > 100 µM (inactive) | > 100 µM (inactive)

— ChEMBL document CHEMBL1201862, “PubChem BioAssay data set” (2004)
